Measured values from patent EP1655298A1, “Novel polymorph forms of candesartan cilexetil” (priority 2004, dated 2006).
Like-named read-outs stand apart in the source and are kept apart here.

Columns and labels:
Type in all cases: physicochemical
[1] = Comparable solubility in phosphate buffer / physiologically relevant medium; conditions: for solubility at 0.5 h: read-out: C30 min; for solubility at 1 h: read-out: C60 min
Protocol: In order to prepare a pharmaceutical composition physical properties were measured.
(§1) Physiologically relevant medium is a phosphate buffer at pH=6.76 + Sodiumtauroholat (2,5 mM) + Lecitin (0,5 mM). Surface area of Form 1 was 2.15 - 2,68 m^2/g whereas the surface area of Form 5 was 7,66 m^2/g (BET - isotherm), the hygroscopity as established by DVS - first cycle at 90 % humidity was 0,23% for Form I and 0,44% for Form 5.

[2] = Surface area (BET isotherm)
Protocol: as §1

Hygroscopicity by DVS = conditions: DVS - first cycle at 90 % humidity
Protocol: as §1

C30 min ([1]; Phosphate buffer pH=6.76, 30 min) [µg/mL]	C60 min ([1]; Phosphate buffer pH=6.76, 60 min) [µg/mL]	solubility at 0.5 h ([1]; phosphate buffer + taurocholate + lecithin, Physiologically relevant medium: phosphate buffer pH=6.76 + Sodiumtauroholat (2,5 mM) + Lecitin (0,5 mM), 30 min) [µg/mL]	solubility at 1 h ([1]; phosphate buffer + taurocholate + lecithin, Physiologically relevant medium: phosphate buffer pH=6.76 + Sodiumtauroholat (2,5 mM) + Lecitin (0,5 mM), 60 min) [µg/mL]	Surface area [2]	hygroscopity (Hygroscopicity by DVS)	solubility at 0.5 h ([1]; aqueous buffer, Phosphate buffer pH=6.76, 30 min) [µg/mL]	solubility at 1 h ([1]; aqueous buffer, Phosphate buffer pH=6.76, 60 min) [µg/mL]	hygroscopity (Hygroscopicity by DVS; listed as Form I)	SMILES
<0.2	<0.2	37.1	68.5	7,66 m^2/g	0,44%				CCOc1nc2cccc(C(=O)OC(C)OC(=O)OC3CCCCC3)c2n1Cc1ccc(-c2ccccc2-c2nnn[nH]2)cc1 (stereo not drawn) [Form 5, candesartan cilexetil]
						< 0.2	< 0.2	0,23%	CCOc1nc2cccc(C(=O)OC(C)OC(=O)OC3CCCCC3)c2n1Cc1ccc(-c2ccccc2-c2nnn[nH]2)cc1 (stereo not drawn) [Form 1, candesartan cilexetil]
